{"source": "patent US20220226338A1", "about": "“Methods of Treating Cancer Using CHK1 Inhibitors” (Sierra Oncology, Inc., priority 2019, published 2022)", "key": {"plasma protein": {"system": "plasma protein", "assay": "Plasma protein binding, ultracentrifugation, minipig plasma", "type": "in vitro ADME", "protocol": "The PK of SRA737 have been determined in the mouse, rat, dog and monkey following oral and IV administration (Table 3). […] An acceptable terminal elimination t1/2 was also observed in each species. […] The plasma protein binding of SRA737 at 1 and 10 μM was examined in mouse, minipig, monkey and human plasma using ultracentrifugation and in dog plasma (10 μM) using rapid equilibrium dialysis."}, "[1]": {"assay": "SRA737 monotherapy clinical study (SRA737-01), pharmacokinetics", "type": "in vivo, human", "protocol": "(§1) A Phase 1 clinical trial was conducted in ‘all comers,’ i.e. no genetic selection was performed, to establish safety, tolerability and pharmacokinetics (“Dose Escalation Phase”). Cohorts consisting initially of a single subject received escalating doses of SRA737, starting in Cohort 1 with 20 mg/day administered orally on a continuous daily dosing schedule in 28 day cycles. the dose was escalated until the maximum tolerated dose (MTD) was identified.\nCmin was calculated at 1000 mg QD (411 ng/mL) and exceeded that determined in preclinical models to be effective. Doses ≥300 mg QD also exceeded the preclinical models to be effective.\n(§2) A Dose Escalation phase employed an accelerated titration design starting at 20 mg SRA737, administered QD orally in 28-day cycles. Incremental dose escalations in single-subject cohorts were followed by a rolling-6 design once SRA737-related ≥Grade 2 toxicity was observed during Cycle 1.\nThe plasma pharmacokinetics of SRA737 were reproducible and generally dose concordant. […] All doses ≥300 mg QD also exceeded this threshold level."}, "[2]": {"assay": "SRA737 monotherapy clinical study (SRA737-01), safety and tolerability", "type": "in vivo", "protocol": "as §1\nIn the Dose Escalation Phase, 18 subjects received SRA737 in 9 dose level cohorts, from 20 to 1300 mg QD; median treatment duration 62.5 days (range 1 to 226). […] Two of 3 subjects experienced DLTs at the 1300 mg once daily dose, each being an inability to receive 75% of the planned SRA737 dose due to GI intolerability, with the individual GI effects being low grade. […] A cohort receiving 500 mg twice daily was added to determine if a twice daily dosing schedule can improve GI tolerability, given the half-life of SRA737 is approximately 10 hours. One of 6 subjects experienced DLTs in the 500 mg twice daily cohort; this was an inability to receive 75% of the planned SRA737 dose due to grade 4 thrombocytopenia with grade 3 neutropenia and anemia.\nas §2\nDose limiting toxicities (DLTs) were assessed following a pharmacokinetic (PK) lead-in dose, and throughout Cycle 1 of treatment, and were defined as adverse events highly probably or probably related to SRA737: grade ≥4 neutropenia or thrombocytopenia lasting >7 days, grade ≥3 febrile neutropenia or thrombocytopenia with bleeding, grade ≥3 non-hematologic toxicity, or the inability to receive ≥75% of the planned SRA737 dose in Cycle 1 due to drug-related toxicity."}, "cancer xenograft models": {"system": "cancer xenograft models", "assay": "In vivo efficacy studies in xenograft, PDX and syngeneic models", "set-up": "species or system mouse", "protocol": "A program of in vivo efficacy studies was performed to assess the activity of SRA737 in combination with genotoxic chemotherapy and targeted agents, and as monotherapy.\nOne of these models also carried a MYCN amplification. A fourth HGSOC PDX model with partial resistance to PARPi was also sensitive to high dose SRA737 monotherapy."}, "[3]": {"system": "cryopreserved hepatocytes", "assay": "Rank order of hepatocyte stability across species", "type": "in vitro ADME, human, mouse, rat, dog, minipig and monkey", "conditions": "10 μM, up to 4 hours", "protocol": "The formation of SRA737-related metabolites was determined in cryopreserved hepatocytes from human, mouse, rat, dog, minipig and monkey samples after incubation with SRA737 at a nominal concentration of 10 μM for up to 4 hours. […] In the human hepatocyte preparation, approximately 67% of the parent remained after 4 hours of incubation compared to 75% and 7% in the rat and minipig preparations, respectively. Eight human SRA737 metabolites were observed. All SRA737 metabolites formed by human hepatocytes were also formed by monkey hepatocytes. Six metabolites were present at equal or greater abundance in the monkey."}, "CYP1A2": {"system": "CYP1A2", "assay": "CYP induction in vitro", "type": "in vitro ADME", "conditions": "positive control omeprazole, minimal, concentration dependent"}}, "data": [{"smiles": "N#Cc1cnc(Nc2cc(NCC3CNCCO3)c(C(F)(F)F)cn2)cn1", "note": "(stereo not shown) [SRA737, 5-[[4-[[morpholin-2-yl]methylamino]-5-(trifluoromethyl)-2-pyridyl]amino]pyrazine-2-carbonitrile]", "values": [{"measurement": "Percentage Bound", "setting": "plasma protein; 1 μM", "value": 85.2, "unit": "%"}, {"measurement": "Percentage Free", "setting": "plasma protein; 1 μM", "value": 14.9, "unit": "%"}, {"measurement": "Percentage Bound", "setting": "plasma protein; 10 μM", "value": 75.5, "unit": "%"}, {"measurement": "Percentage Free", "setting": "plasma protein; 10 μM", "value": 24.5, "unit": "%"}, {"measurement": "CL/F", "setting": "[1]; human, in vivo, 160 mg", "value": 70.0, "unit": "L/h"}, {"measurement": "Vd/F", "setting": "[1]; human, in vivo, 160 mg", "value": 1390, "unit": "L"}, {"measurement": "CL/F", "setting": "[1]; human, in vivo, 300 mg", "value": 81.9, "unit": "L/h"}, {"measurement": "Vd/F", "setting": "[1]; human, in vivo, 300 mg", "value": 1020, "unit": "L"}, {"measurement": "t1/2", "setting": "[1]; human, in vivo, 300 mg", "value": 8.6, "unit": "h"}, {"measurement": "CL/F", "setting": "[1]; human, in vivo, 600 mg", "value": 56.9, "unit": "L/h"}, {"measurement": "Vd/F", "setting": "[1]; human, in vivo, 600 mg", "value": 1090, "unit": "L"}, {"measurement": "AUC(0-t)", "setting": "[1]; human, in vivo, 800 mg", "value": 18500, "unit": "ng·h/mL"}, {"measurement": "CL/F", "setting": "[1]; human, in vivo, 800 mg", "value": 39.1, "unit": "L/h"}, {"measurement": "Cmax", "setting": "[1]; human, in vivo, 800 mg", "value": 1880, "unit": "ng/mL"}, {"measurement": "Vd/F", "setting": "[1]; human, in vivo, 800 mg", "value": 596, "unit": "L"}, {"measurement": "t1/2", "setting": "[1]; human, in vivo, 800 mg", "value": 10.5, "unit": "h"}, {"measurement": "AUC0-24 h", "setting": "[1]; human, in vivo, 1000 mg", "value": 20270, "unit": "ng·h/mL"}, {"measurement": "CL/F", "setting": "[1]; human, in vivo, 1000 mg", "value": 44.9, "unit": "L/h"}, {"measurement": "Cmax", "setting": "[1]; human, in vivo, 1000 mg", "value": 2098, "unit": "ng/mL"}, {"measurement": "Vd/F", "setting": "[1]; human, in vivo, 1000 mg", "value": 704, "unit": "L"}, {"measurement": "CL/F", "setting": "[1]; human, in vivo, 1300 mg", "value": 38.6, "unit": "L/h"}, {"measurement": "Vd/F", "setting": "[1]; human, in vivo, 1300 mg", "value": 625, "unit": "L"}, {"measurement": "doses at which Cmin exceeded that effective in preclinical models", "setting": "[1]; monotherapy", "value": "≥ 300", "unit": "mg QD"}, {"measurement": "Cmin", "setting": "[1]; monotherapy PK dose 160 mg (n = 1)", "value": 31.7, "unit": "ng/mL"}, {"measurement": "Cmin", "setting": "[1]; monotherapy PK dose 300 mg (n = 1)", "value": 41.2, "unit": "ng/mL"}, {"measurement": "Cmin", "setting": "[1]; monotherapy PK dose 600 mg (n = 4)", "value": 129, "unit": "ng/mL"}, {"measurement": "Cmin", "setting": "[1]; monotherapy PK dose 800 mg (n = 38)", "value": 234, "unit": "ng/mL"}, {"measurement": "Cmin", "setting": "[1]; monotherapy PK dose 1000 mg (n = 44-45)", "value": 289, "unit": "ng/mL"}, {"measurement": "Cmin", "setting": "[1]; monotherapy PK dose 1300 mg (n = 3)", "value": 466, "unit": "ng/mL"}, {"measurement": "AST increased", "setting": "[2]; human, in vivo", "value": 3, "unit": "%"}, {"measurement": "TEAEs mild to moderate in severity (Grade 1/Grade 2)", "setting": "[2]; human, in vivo", "value": 90, "unit": "%"}, {"measurement": "abdominal pain", "setting": "[2]; human, in vivo", "value": 3, "unit": "%"}, {"measurement": "abdominal pain upper", "setting": "[2]; human, in vivo", "value": 3, "unit": "%"}, {"measurement": "diarrhea, most common TEAEs", "setting": "[2]; human, in vivo", "value": 68, "unit": "%"}, {"measurement": "disease progression", "setting": "[2]; human, in vivo", "value": 8, "unit": "%"}, {"measurement": "dose-limiting toxicities (DLTs)", "setting": "[2]; human, in vivo", "value": "without any dose-limiting toxicities"}, {"measurement": "dyspnea", "setting": "[2]; human, in vivo", "value": 3, "unit": "%"}, {"measurement": "emergent or cumulative toxicity and/or declining tolerability", "setting": "[2]; human, in vivo", "value": "No evidence of emergent or cumulative toxicity and/or declining tolerability"}, {"measurement": "fatigue", "setting": "[2]; human, in vivo", "value": 3, "unit": "%"}, {"measurement": "fatigue, most common TEAEs", "setting": "[2]; human, in vivo", "value": 47, "unit": "%"}, {"measurement": "hyponatremia", "setting": "[2]; human, in vivo", "value": 4, "unit": "%"}, {"measurement": "infection", "setting": "[2]; human, in vivo", "value": 4, "unit": "%"}, {"measurement": "lymphocyte count decreased", "setting": "[2]; human, in vivo", "value": 5, "unit": "%"}, {"measurement": "nausea", "setting": "[2]; human, in vivo", "value": 3, "unit": "%"}, {"measurement": "nausea, most common TEAEs", "setting": "[2]; human, in vivo", "value": 66, "unit": "%"}, {"measurement": "neutropenia", "setting": "[2]; human, in vivo", "value": 8, "unit": "%"}, {"measurement": "pleural effusion", "setting": "[2]; human, in vivo", "value": 3, "unit": "%"}, {"measurement": "rash maculo-papular", "setting": "[2]; human, in vivo", "value": 3, "unit": "%"}, {"measurement": "recommended monotherapy dose", "setting": "[2]; human, in vivo", "value": 800, "unit": "mg/day"}, {"measurement": "subjects with at least one SRA737-related event", "setting": "[2]; human, in vivo", "value": 91, "unit": "%"}, {"measurement": "tolerability of 800 mg once daily", "setting": "[2]; human, in vivo", "value": "overall better tolerated than 1000 mg"}, {"measurement": "vomiting, most common TEAEs", "setting": "[2]; human, in vivo", "value": 51, "unit": "%"}, {"measurement": "subjects experiencing DLTs", "setting": "[2]; human, in vivo, 28 days", "value": 3, "unit": "subjects"}, {"measurement": "maximum tolerated dose (MTD)", "setting": "[2]; monotherapy", "value": 1000, "unit": "mg/day"}, {"measurement": "recommended dose for expansion cohorts (RP2D)", "setting": "[2]; monotherapy", "value": 800, "unit": "mg QD"}, {"measurement": "relatedness of Grade 5 TEAEs", "setting": "[2]; monotherapy", "value": "none were considered related to SRA737"}, {"measurement": "subjects with treatment-emergent adverse events (TEAEs)", "setting": "[2]; monotherapy", "value": "106 (99%) n (%)"}, {"measurement": "maximum tolerated dose (MTD)", "setting": "[2]; monotherapy, once daily", "value": 1000, "unit": "mg QD"}, {"measurement": "maximum tolerated dose (MTD)", "setting": "[2]; monotherapy, twice daily", "value": 500, "unit": "mg BID"}, {"measurement": "number of Grade 5 TEAEs", "setting": "[2]; monotherapy, up to 30-days post last treatment", "value": "Six"}, {"measurement": "synergy with gemcitabine and carboplatin", "setting": "cancer xenograft models; Calu6 model, data not shown", "value": "Synergy"}, {"measurement": "antitumor activity as a single agent", "setting": "cancer xenograft models; HGSOC PDX models harboring CCNE1 amplifications accompanied by TP53 mutations, data not shown", "value": "Significant antitumor activity"}, {"measurement": "synergy with low-dose gemcitabine", "setting": "cancer xenograft models; HT29 (FIG. 5), OVCAR3 and SJSA-1 CDX models, PDX model of TNBC", "value": "Synergy was also observed"}, {"measurement": "antitumor activity in combination with standard-dose gemcitabine", "setting": "cancer xenograft models; HT29, SJSA-1, SW620, Calu6, KPC-1 and patient-derived bladder carcinoma xenograft models, data not shown", "value": "Significant, dose-dependent antitumor activity"}, {"measurement": "synergy with irinotecan", "setting": "cancer xenograft models; HT29 model, data not shown", "value": "Synergy"}, {"measurement": "single agent efficacy", "setting": "cancer xenograft models; OVCAR3, Eμ-Myc, MOLM-13, TH-MYC, MDA-MB-231, Renca and LL/2 models, data not shown", "value": "demonstrated single agent efficacy"}, {"measurement": "sensitivity to high dose SRA737 monotherapy", "setting": "cancer xenograft models; fourth HGSOC PDX model with partial resistance to PARPi", "value": "sensitive"}, {"measurement": "antitumor activity in combination with a PD1/PD-L1 inhibitor", "setting": "cancer xenograft models; syngeneic mouse models mTmG, MC38 and Pan02, data not shown", "value": "Significant antitumor activity"}, {"measurement": "rank order of stability from most stable to least stable", "setting": "[3]", "value": "rat≈mouse>monkey˜human>>dog>>minipig"}, {"measurement": "induction of CYP1A2", "setting": "CYP1A2", "value": "< 10", "unit": "% positive control"}]}]}
